Results on 16 compounds are retold here after patent US20260297081A1, “COMPOUNDS AND METHODS OF TREATING CANCERS” (Cullgen Inc., priority 2023, published 2026).

Where only a bound is given, the exact number is not on record here.

The target of the assay is CDK4 (Homo sapiens, UniProt P11802+Q16531). Briefly: CDK4 percentage degradation in Calu-1 cells (Table 6). It is filed as cell-based. Further details: Cells that express cyclin D1-3 and CDK4/6 proteins were treated with heterobifunctional compounds; endogenous in cells; host or cells: Calu-1. Particulars: 16 hours; for inhibition at 0.04 µM: 40 nM; for inhibition at 0.2 µM: 200 nM. In outline:
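Percentage degradation of Cyclin D1 and CDK4 derived from densitometry of ECL Western blots on lysates of Calu-1 cells. Treatment was 16 h with compound at either 40 nM or 200 nM.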

Chain of CDK4 (P11802 2-303 limits assumed): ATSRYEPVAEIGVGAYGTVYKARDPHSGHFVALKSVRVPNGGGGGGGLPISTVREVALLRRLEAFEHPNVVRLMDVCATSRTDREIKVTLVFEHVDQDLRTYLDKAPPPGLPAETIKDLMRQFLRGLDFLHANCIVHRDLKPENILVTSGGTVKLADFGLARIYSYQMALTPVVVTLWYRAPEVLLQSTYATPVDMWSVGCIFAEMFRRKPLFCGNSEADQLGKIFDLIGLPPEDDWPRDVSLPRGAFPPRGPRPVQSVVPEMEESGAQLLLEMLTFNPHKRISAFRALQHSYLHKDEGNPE
Chain of CDK4 (P24385 whole entry partner): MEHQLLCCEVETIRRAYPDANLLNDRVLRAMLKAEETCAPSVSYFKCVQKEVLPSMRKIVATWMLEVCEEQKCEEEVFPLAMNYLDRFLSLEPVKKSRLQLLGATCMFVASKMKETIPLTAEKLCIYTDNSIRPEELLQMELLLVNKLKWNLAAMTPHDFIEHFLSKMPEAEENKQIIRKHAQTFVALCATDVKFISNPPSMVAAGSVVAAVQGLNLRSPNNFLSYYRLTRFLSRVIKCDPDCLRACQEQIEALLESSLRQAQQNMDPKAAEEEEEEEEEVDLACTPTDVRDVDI
Chain of CDK4 (Q16531 2-1140 limits assumed): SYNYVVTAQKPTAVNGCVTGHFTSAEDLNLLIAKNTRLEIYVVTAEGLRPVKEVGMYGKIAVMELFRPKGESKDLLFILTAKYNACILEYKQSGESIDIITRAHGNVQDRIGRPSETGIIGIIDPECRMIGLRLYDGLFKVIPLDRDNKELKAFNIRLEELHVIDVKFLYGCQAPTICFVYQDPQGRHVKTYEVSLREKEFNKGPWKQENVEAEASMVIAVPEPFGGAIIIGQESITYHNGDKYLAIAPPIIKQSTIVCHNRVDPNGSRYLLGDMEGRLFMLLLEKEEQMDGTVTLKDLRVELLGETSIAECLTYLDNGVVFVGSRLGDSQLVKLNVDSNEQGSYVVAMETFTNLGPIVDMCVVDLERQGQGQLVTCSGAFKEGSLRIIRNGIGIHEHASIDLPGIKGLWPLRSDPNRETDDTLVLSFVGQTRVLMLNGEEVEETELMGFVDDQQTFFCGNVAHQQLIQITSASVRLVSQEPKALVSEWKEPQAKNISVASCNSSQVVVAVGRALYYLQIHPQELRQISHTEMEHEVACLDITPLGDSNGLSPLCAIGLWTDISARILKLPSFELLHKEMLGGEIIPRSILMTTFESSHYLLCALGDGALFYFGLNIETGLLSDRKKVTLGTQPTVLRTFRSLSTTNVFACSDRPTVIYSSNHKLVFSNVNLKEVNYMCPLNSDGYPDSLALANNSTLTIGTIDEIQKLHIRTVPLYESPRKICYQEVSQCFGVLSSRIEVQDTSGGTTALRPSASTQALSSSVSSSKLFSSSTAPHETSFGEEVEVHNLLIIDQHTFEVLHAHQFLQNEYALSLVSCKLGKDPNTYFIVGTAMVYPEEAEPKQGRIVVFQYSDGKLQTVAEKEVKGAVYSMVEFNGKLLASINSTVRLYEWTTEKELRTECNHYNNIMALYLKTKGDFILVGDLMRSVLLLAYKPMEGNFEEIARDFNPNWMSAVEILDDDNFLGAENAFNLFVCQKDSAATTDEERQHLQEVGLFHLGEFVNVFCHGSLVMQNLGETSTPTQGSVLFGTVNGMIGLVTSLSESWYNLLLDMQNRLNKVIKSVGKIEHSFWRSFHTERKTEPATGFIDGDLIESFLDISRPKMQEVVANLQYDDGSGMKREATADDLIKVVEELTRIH

As a reminder, the inhibition is the change of the read-out against control, counted positive when it falls. Higher therefore signals a strong effect. `CNc1ccc(C(=O)NC2CC3(C2)CC(N(C)C)C3)c(NCCCCCNC(=O)CN2CCN(c3ccc(Nc4ncc5c(C)c(C(C)=O)c(=O)n(C6CCCC6)c5n4)nc3)CC2)n1` (centres unmarked) [CPD-67, 2-((5-(2-(4-(6-((6-Acetyl-8-cyclopentyl-5-methyl-7-oxo-7,8-dihydropyrido[2,3-d]pyrimidin-2-yl)amino)pyridin-3-yl)piperazin-1-yl)acetamido)pentyl)amino)-N-(6-(dimethylamino)spiro[3.3]heptan-2-yl)-6-(methylamino)nicotinamide] yielded an inhibition at 0.04 µM of under 30% and an inhibition at 0.2 µM of under 30%.

The compound `CC(=O)c1c(C)c2cnc(Nc3ccc(N4CCN(CC(=O)NCCCNc5nc(C)ccc5C(=O)Nc5nc(C)c(C)s5)CC4)cn3)nc2n(C2CCCC2)c1=O` [CPD-1, 2-((3-(2-(4-(6-((6-Acetyl-8-cyclopentyl-5-methyl-7-oxo-7,8-dihydropyrido[2,3-d]pyrimidin-2-yl)amino)pyridin-3-yl)piperazin-1-yl)acetamido)propyl)amino)-N-(4,5-dimethylthiazol-2-yl)-6-methylnicotinamide] came in with an inhibition at 0.04 µM of under 30% and an inhibition at 0.2 µM of 30 to 50%.

The compound `[2H]C([2H])([2H])Nc1ccc(C(=O)Nc2cc(C)n(C)n2)c(NC2CN(C(=O)C(F)(F)CN3CCN(c4ccc(Nc5ncc6c(C)c(C(C)=O)c(=O)n(C7CCCC7)c6n5)nc4)CC3)C2)n1` [CPD-233, 2-((1-(3-(4-(6-((6-acetyl-8-cyclopentyl-5-methyl-7-oxo-7,8-dihydropyrido[2,3-d]pyrimidin-2-yl)amino)pyridin-3-yl)piperazin-1-yl)-2,2-difluoropropanoyl)azetidin-3-yl)amino)-N-(1,5-dimethyl-1H-pyrazol-3-yl)-6-((methyl-d3)amino)nicotinamide] returned an inhibition at 0.04 µM of under 30% and an inhibition at 0.2 µM of 30 to 50%.

In the case of `[2H]C([2H])([2H])Nc1ccc(C(=O)Nc2ccc(F)c(C3CC3)n2)c(NC2CC3(CC(NC(=O)CN4CCN(c5ccc(Nc6ncc7c(C)c(C(C)=O)c(=O)n(C8CCCC8)c7n6)nc5)CC4)C3)C2)n1` (centres unmarked) [CPD-239, 2-((6-(2-(4-(6-((6-acetyl-8-cyclopentyl-5-methyl-7-oxo-7,8-dihydropyrido[2,3-d]pyrimidin-2-yl)amino)pyridin-3-yl)piperazin-1-yl)acetamido)spiro[3.3]heptan-2-yl)amino)-N-(6-cyclopropyl-5-fluoropyridin-2-yl)-6-((methyl-da)amino)nicotinamide], the inhibition at 0.04 µM lay within 30 to 50% and the inhibition at 0.2 µM is 50 to 80%.

As for `CNc1ccc(C(=O)Nc2ccc(N(C)C)nn2)c(NC2CC(CCCC(=O)N3CCN(c4ccc(Nc5ncc6c(C)c(C(C)=O)c(=O)n(C7CCCC7)c6n5)nc4)CC3)C2)n1` (centres unmarked) [CPD-156, 2-((3-(4-(4-(6-((6-acetyl-8-cyclopentyl-5-methyl-7-oxo-7,8-dihydropyrido[2,3-d]pyrimidin-2-yl)amino)pyridin-3-yl)piperazin-1-yl)-4-oxobutyl)cyclobutyl)amino)-N-(6-(dimethylamino)pyridazin-3-yl)-6-(methylamino)nicotinamide], the inhibition at 0.04 µM was 50 to 80% and the inhibition at 0.2 µM was in the range of 50 to 80%.

`CNc1ccc(C(=O)Nc2ccc(N(C)C)nn2)c(NC2CC3(CC(CCC(=O)N4CCN(c5ccc(Nc6ncc7c(C)c(C(C)=O)c(=O)n(C8CCCC8)c7n6)nc5)CC4)C3)C2)n1` (centres unmarked) [CPD-82, 2-((6-(3-(4-(6-((6-Acetyl-8-cyclopentyl-5-methyl-7-oxo-7,8-dihydropyrido[2,3-d]pyrimidin-2-yl)amino)pyridin-3-yl)piperazin-1-yl)-3-oxopropyl)spiro[3.3]heptan-2-yl)amino)-N-(6-(dimethylamino)pyridazin-3-yl)-6-(methylamino)nicotinamide] came in with an inhibition at 0.04 µM of 30 to 50% and an inhibition at 0.2 µM of 30 to 50%.

For the compound `CNc1ccc(C(=O)Nc2cc(C(C)C)n(C)n2)c(NC2CC3(CC(NC(=O)CN4CCN(c5ccc(Nc6ncc7c(C)c(C(C)=O)c(=O)n(C8CCCC8)c7n6)nc5)CC4)C3)C2)n1` (centres unmarked) [CPD-95, 2-((6-(2-(4-(6-((6-Acetyl-8-cyclopentyl-5-methyl-7-oxo-7,8-dihydropyrido[2,3-d]pyrimidin-2-yl)amino)pyridin-3-yl)piperazin-1-yl)acetamido)spiro[3.3]heptan-2-yl)amino)-N-(5-isopropyl-1-methyl-1H-pyrazol-3-yl)-6-(methylamino)nicotinamide], the inhibition at 0.04 µM is under 30% and the inhibition at 0.2 µM is under 30%.

In turn, `[2H]C([2H])([2H])Nc1ccc(C(=O)Nc2cccc(C)n2)c(NC2CC3(C2)CC(OC(C)(C)C(=O)N2CCN(c4ccc(Nc5ncc6c(C)c(C(C)=O)c(=O)n(C7CCCC7)c6n5)nc4)CC2)C3)n1` (centres unmarked) [CPD-226, 2-((6-((1-(4-(6-((6-acetyl-8-cyclopentyl-5-methyl-7-oxo-7,8-dihydropyrido[2,3-d]pyrimidin-2-yl)amino)pyridin-3-yl)piperazin-1-yl)-2-methyl-1-oxopropan-2-yl)oxy)spiro[3.3]heptan-2-yl)amino)-6-((methyl-d3)amino)-N-(6-methylpyridin-2-yl)nicotinamide] returned an inhibition at 0.04 µM of under 30% and an inhibition at 0.2 µM of 30 to 50%.

Consider `CC(=O)c1c(C)c2cnc(Nc3ccc(N4CCN(CC(=O)NC5CC6(C5)CC(Nc5nc(C7CC7)ccc5C(=O)Nc5cccc(C7CC7)n5)C6)CC4)cn3)nc2n(C2CCCC2)c1=O` (centres unmarked) [CPD-138, 2-((6-(2-(4-(6-((6-Acetyl-8-cyclopentyl-5-methyl-7-oxo-7,8-dihydropyrido[2,3-d]pyrimidin-2-yl)amino)pyridin-3-yl)piperazin-1-yl)acetamido)spiro[3.3]heptan-2-yl)amino)-6-cyclopropyl-N-(6-cyclopropylpyridin-2-yl)nicotinamide], for which the inhibition at 0.04 µM is under 30% and the inhibition at 0.2 µM was in the range of 30 to 50%.

Regarding `CNc1ccc(C(=O)Nc2ccc(C)c(C(C)C)n2)c(NCCCCCNC(=O)CN2CCN(c3ccc(Nc4ncc5c(C)c(C(C)=O)c(=O)n(C6CCCC6)c5n4)nc3)CC2)n1` [CPD-111, 2-((5-(2-(4-(6-((6-Acetyl-8-cyclopentyl-5-methyl-7-oxo-7,8-dihydropyrido[2,3-d]pyrimidin-2-yl)amino)pyridin-3-yl)piperazin-1-yl)acetamido)pentyl)amino)-N-(6-isopropyl-5-methylpyridin-2-yl)-6-(methylamino)nicotinamide], the inhibition at 0.04 µM was under 30% and the inhibition at 0.2 µM was 50 to 80%.

Compound `CC(=O)c1c(C)c2cnc(Nc3ccc(N4CCN(CC(=O)NC5CC6(C5)CC(Nc5nc(C(C)C)ccc5C(=O)Nc5cccc(C7CC7)n5)C6)CC4)cn3)nc2n(C2CCCC2)c1=O` (centres unmarked) [CPD-119, 2-((6-(2-(4-(6-((6-Acetyl-8-cyclopentyl-5-methyl-7-oxo-7,8-dihydropyrido[2,3-d]pyrimidin-2-yl)amino)pyridin-3-yl)piperazin-1-yl)acetamido)spiro[3.3]heptan-2-yl)amino)-N-(6-cyclopropylpyridin-2-yl)-6-isopropylnicotinamide] came in with an inhibition at 0.04 µM of under 30% and an inhibition at 0.2 µM of 30 to 50%.

`[2H]C([2H])([2H])Nc1ccc(C(=O)Nc2cc(C)on2)c(NC2CN(C(=O)C(F)(F)CN3CCN(c4ccc(Nc5ncc6c(C)c(C(C)=O)c(=O)n(C7CCCC7)c6n5)nc4)CC3)C2)n1` [CPD-234, 2-((1-(3-(4-(6-((6-acetyl-8-cyclopentyl-5-methyl-7-oxo-7,8-dihydropyrido[2,3-d]pyrimidin-2-yl)amino)pyridin-3-yl)piperazin-1-yl)-2,2-difluoropropanoyl)azetidin-3-yl)amino)-6-((methyl-d3)amino)-N-(5-methylisoxazol-3methyl-yl)nicotinamide] showed an inhibition at 0.04 µM of under 30% and an inhibition at 0.2 µM of under 30%.

In turn, `CNc1ccc(C(=O)Nc2ccc(N(C)C)nn2)c(NC2CN(C(=O)CCCN3CCN(c4ccc(Nc5ncc6c(C)c(C(C)=O)c(=O)n(C7CCCC7)c6n5)nc4)CC3)C2)n1` [CPD-211, 2-((1-(4-(4-(6-((6-acetyl-8-cyclopentyl-5-methyl-7-oxo-7,8-dihydropyrido[2,3-d]pyrimidin-2-yl)amino)pyridin-3-yl)piperazin-1-yl)butanoyl)azetidin-3-yl)amino)-N-(6-(dimethylamino)pyridazin-3-yl)-6-(methylamino)nicotinamide] showed an inhibition at 0.04 µM of 30 to 50% and an inhibition at 0.2 µM of 30 to 50%.

In turn, `CNc1ccc(C(=O)Nc2ccc(N(C)C)nn2)c(NC2CC3(CC(CCCN4CCN(c5ccc(Nc6ncc7c(C)c(C(C)=O)c(=O)n(C8CCCC8)c7n6)nc5)CC4)C3)C2)n1` (centres unmarked) [CPD-83, 2-((6-(3-(4-(6-((6-Acetyl-8-cyclopentyl-5-methyl-7-oxo-7,8-dihydropyrido[2,3-d]pyrimidin-2-yl)amino)pyridin-3-yl)piperazin-1-yl)propyl)spiro[3.3]heptan-2-yl)amino)-N-(6-(dimethylamino)pyridazin-3-yl)-6-(methylamino)nicotinamide] returned an inhibition at 0.04 µM of under 30% and an inhibition at 0.2 µM of 30 to 50%.

For `CNc1ccc(C(=O)Nc2ccnn2C)c(NC2CC3(CC(NC(=O)CN4CCN(c5ccc(Nc6ncc7c(C)c(C(C)=O)c(=O)n(C8CCCC8)c7n6)nc5)CC4)C3)C2)n1` (centres unmarked) [CPD-153, 2-((6-(2-(4-(6-((6-acetyl-8-cyclopentyl-5-methyl-7-oxo-7,8-dihydropyrido[2,3-d]pyrimidin-2-yl)amino)pyridin-3-yl)piperazin-1-yl)acetamido)spiro[3.3]heptan-2-yl)amino)-N-(1-methyl-1H-pyrazol-5-yl)-6-(methylamino)nicotinamide], the inhibition at 0.04 µM was under 30% and the inhibition at 0.2 µM is under 30%.

`CNc1ccc(C(=O)Nc2ccc(C(C)C)nn2)c(NCCCCCNC(=O)CN2CCN(c3ccc(Nc4ncc5c(C)c(C(C)=O)c(=O)n(C6CCCC6)c5n4)nc3)CC2)n1` [CPD-15, 2-((5-(2-(4-(6-((6-Acetyl-8-cyclopentyl-5-methyl-7-oxo-7,8-dihydropyrido[2,3-d]pyrimidin-2-yl)amino)pyridin-3-yl)piperazin-1-yl)acetamido)pentyl)amino)-N-(6-isopropylpyridazin-3-yl)-6-(methylamino)nicotinamide] had an inhibition at 0.04 µM of under 30% and an inhibition at 0.2 µM of under 30%.
